Experimental data published in PMC8861642, “Cryo-electron microscopy reveals how acetogenins inhibit mitochondrial respiratory complex I” (The Journal of Biological Chemistry, 2022).
Like-named read-outs stand apart in the source and are kept apart here.

Tests used:
[1] = biological target: complex I (NADH:ubiquinone oxidoreductase) in bovine submitochondrial particles; details: internal bullatacin control, cited from earlier work
mouse complex I = biological target: T1, mouse complex I (Mus musculus, UniProt P03888+Q91WD5+Q9DC70); experiment: NADH:DQ assay of purified compound 1-copurified mouse complex I, initial rates against control sample; format: biochemical; details: first 25 s, 5 μM DQ, 0.5 μg ml−1 AOX, 200 μM NADH; after copurification with 200 μM compound 1 and size-exclusion chromatography; SD, n = 3 technical repeats; read-out: inhibition of initial rates (proportion of complex I molecules containing the inhibitor)
T1 construct: hearts were obtained from C57BL/6 mice; from tissue; host or cells: heart mitochondria of C57BL/6 mice
Method: To better understand the mode of acetogenin binding to complex I, the inhibitor-bound enzyme was prepared for cryo-EM analysis. The acetogenin ortholog inhibitor selected for study here is compound 1; it contains a γ-lactone group, a 12-carbon aliphatic chain (linker) that connects the γ-lactone to a central hydroxylated bis-tetrahydrofuran (THF) group, and a final 10-carbon aliphatic extension (tail) (Figs. 1 and 2). […] Furthermore, substrates (NADH and decylubiquinone, DQ) were added alongside to stimulate complex I turnover, along with an alcohol dehydrogenase and an alternative oxidase for substrate regeneration, to ensure exposure of the high-affinity binding site that may only be present in specific intermediates. Excess compound 1, substrates, and regenerating enzymes were then removed by size-exclusion chromatography to eliminate nonspecifically bound inhibitor molecules. […]
After ∼5 min at 4 °C incubation, 20 μl of the mixture was removed as a control, and the remaining sample was added to glass vials containing enough dried compound 1, from an ethanol stock, to give a final 200 μM of compound 1, resuspended with gentle pipetting. […] The specific activity of the control [measured in 0.15% asolectin (20 % soy PC), 0.15% CHAPS, and 200 μM DQ] was 9.6 ± 0.4 μmol min^−1 mg^−1.

[2] = ref 33, read-out: IC50* (complex I inhibition)
[3] = ref 34, read-out: IC50† (complex I inhibition)

Compound | IC50 [1, 2] [nM] | inhibition at 200 µM (mouse complex I) [%] | IC50 [1, 3] [nM] | IC50† (complex I inhibition) ([1]; ref 34)
CCCCCCCCCCC(OC(C)=O)C1CCC(C2CCC(C(CCCCCCCCCCCCC3=CC(C)OC3=O)OC(C)=O)O2)O1 (centres unmarked) [Compound 8] | 7.2 | – | – | –
CCCCCCCCCCC(O)C1CCC(C2CCC(C(O)CCCCCCCCCCCCC3=CC(C)OC3=O)O2)O1 (centres unmarked) [Compound 1] | 1.3 | 77 ± 5 | 1.3 ± 0.1 | –
bullatacin [reference compound] | 0.9 ± 0.2 | – | 1.2 ± 0.2 | –
CC1C=C(CCCCCCCCCCCCC(O)C2CCC(C3CCC(C(O)CCCCCCCCCCCCC4=CC(C)OC4=O)O3)O2)C(=O)O1 (centres unmarked) [Compound 9] | – | – | 1.2 | –
CC(=O)OC(CCCCCCCCCCCCC1=CC(C)OC1=O)C1CCC(C2CCC(C(CCCCCCCCCCCCC3=CC(C)OC3=O)OC(C)=O)O2)O1 (centres unmarked) [Compound 13] | – | – | 18 ± 2 | maintains its high affinity
CC(=O)OC(CCCCCCCCCCCCC1=CC(C)OC1=O)C1CCC(C2CCC(C(O)CCCCCCCCCCCCC3=CC(C)OC3=O)O2)O1 (centres unmarked) [Compound 12] | – | – | 2 ± 0.2 | –
CCCCCCCCCCC(O)C1CCC(C2CCC(C(O)CCCCCCCCCCCCC3=CCC(C)OC3=O)O2)O1 (centres unmarked) [Compound 3] | 1.3 ± 0.1 | – | – | –
CC1C=C(CCCCCCCCCCCCC(O)C2CCC(C3CCC(C(O)CCCCCCCCCCCCC4=CC(C)OC4=O)O3)O2)C(=O)O1 (centres unmarked) [Compound 11] | – | – | 1.2 ± 0.2 | –
CCCCCCCCCCC(O)C1CCC(C2CCC(C(CCCCCCCCCCCCC3=CC(C)OC3=O)OC(C)=O)O2)O1 (centres unmarked) [Compound 7] | 2.1 | – | – | –
CCCCCCCCCCC(O)C1CCC(C2CCC(C(O)CCCCCCCCCCCCC3=CCOC3=O)O2)O1 (centres unmarked) [Compound 2] | 1.2 ± 0.1 | – | – | –
